Active and inactive are the calls of the source. The calls are words filed in the database; no cut-off is given here.
Key:
[1] = tested on: Human immunodeficiency virus 1; experiment: Compound was tested for inhibition of HIV-1 replication in human T-cell by using XTT assay; Moderately active; format: functional, organism-based
[2] = tested on: Human immunodeficiency virus 1; experiment: Tested against zinc finger of the recombinant HIV-1 p7NC toluenesulfonamide) residue for fluorometric measurements; format: functional
[3] = tested on: Human immunodeficiency virus 1; experiment: Inhibition of HIV-1 replication in human T-cell by using XTT assay.; format: functional
[4] = tested on: Human immunodeficiency virus 1; experiment: Tested against zinc finger of the recombinant HIV-1 p7NC protein by using Trp residue for fluorometric measurements; format: functional
[5] = tested on: Human immunodeficiency virus 1; experiment: Tested for cytoprotection against production of HIV-1 p24.; format: functional, organism-based
[6] = tested on: Human immunodeficiency virus 1; experiment: Effective concentration required for 50% production of p24 production.; format: functional, organism-based
[7] = tested on: Human immunodeficiency virus 1; experiment: Compound was tested for effective concentration required for 50% production of p24 production; NA = Not active; format: functional, organism-based
T-cell line = experiment: Compound was tested for inhibition of HIV-1 replication in human T-cell by using XTT assay; Active; format: functional, cell-based

Row | SMILES | IC50 [5] | EC50 [6] | EC50 [7] | Activity [1] | increase in RFU [2] | TI50 [3] | Decrease in RFU [4] | Activity (T-cell line)
1 | Cc1cc(C)c(C(=O)O)c(SSc2cc(C)cc(C)c2C(=O)O)c1 |  |  | Not Active | Weak activity |  | 2.7 |  | 
2 | NS(=O)(=O)c1ccc(SSc2ccc(S(N)(=O)=O)cc2[N+](=O)[O-])c([N+](=O)[O-])c1 |  |  |  | Weak activity |  | >5.8 |  | 
3 | CNCCSS(=O)(=O)CCNC |  |  |  | Weak activity |  | >1.8 |  | 
4 | O=C(N/N=C\c1ccc(Cl)cc1Cl)c1ccccc1SSc1ccccc1C(=O)N/N=C\c1ccc(Cl)cc1Cl | > 100 µM | 3.5 µM |  |  | 1.6% | >15.9 | 31.3% | Active
5 | O=C(O)c1ccccc1SSc1ccccc1C(=O)O | > 100 µM | 57.5 µM |  | Weak activity | 9.8% | >1.7 | 6% | 
6 | CC(=O)NCCSS(=O)(=O)CCCCS(=O)(=O)SCCNC(C)=O | > 100 µM | > 100 µM |  | Weak activity | 32.8% | >1.6 | 82.5% | 
7 | CC1(C)CC2=NC(SSC3=C(C#N)C(c4ccc(Br)cc4)C4=C(O)CC(C)(C)CC4=N3)=C(C#N)C(c3ccc(Br)cc3)C2=C(O)C1 (stereo not given) | > 100 µM | > 100 µM |  | Weak activity | 0.3% | 3.4 | 24.8% | 
8 | COS(=O)CCOC(=O)c1ccccc1SSc1ccccc1C(=O)OCCS(=O)OC (stereo not given) |  |  | Not Active | Weak activity |  | >2.1 |  | 
9 | Cc1cc(S(=O)(=O)C2=NC(Nc3ccccc3)NN2)c(SSc2cc(Cl)c(C)cc2S(=O)(=O)C2=NC(Nc3ccccc3)NN2)cc1Cl (stereo not given) | > 100 µM | 80 µM |  | Weak activity | 1.5% | 15.7 | 92.1% | 
10 | O=C(O)Cc1ccc(SSc2ccc(CC(=O)O)cc2)cc1 | > 100 µM | > 100 µM |  | Weak activity | 10.6% | >8.7 | 51.5% | 
11 | N=C(N)Nc1ccccc1SSc1ccccc1N=C(N)N | > 100 µM | 10 µM |  |  | 1.6% | 32 | 31.3% | Active

Second part, led by results:

Row | IC50 [5] | EC50 [6] | EC50 [7] | SMILES | Activity [1] | increase in RFU [2] | TI50 [3] | Decrease in RFU [4] | Activity (T-cell line)
12 | > 100 µM | > 100 µM |  | CC1(C)CC2=NC(SSC3=C(C#N)C(c4ccc(F)cc4)C4=C(O)CC(C)(C)CC4=N3)=C(C#N)C(c3ccc(F)cc3)C2=C(O)C1 (stereo not given) | Weak activity | 0.3% | 3.2 | 78.1% | 
13 | > 100 µM | > 100 µM |  | NC(=O)CSSCC(N)=O | Weak activity | 1.2% | 6.5 | 2.1% | 
14 | > 100 µM | > 100 µM |  | O=C(O)c1ccc(SSc2ccc(C(=O)O)cc2)cc1 | Weak activity | 22.3% | >1.6 | 62.5% | 
15 | 97 µM | > 100 µM |  | Nc1ccc(S(N)(=O)=O)cc1SSc1cc(S(N)(=O)=O)ccc1N | Weak activity | 26% | >14.2 | 52.1% | 
16 | > 100 µM | > 100 µM |  | COC(=S)SSC(=S)N(CC/N=C(/S)SSC(=S)OC)CC/N=C(\S)SSC(=S)OC | Weak activity | 10.6% | 2.6 | 37.7% | 
17 | > 100 µM | > 100 µM |  | Nc1cc(C(=O)O)ccc1SSc1ccc(C(=O)O)cc1N | Weak activity | 10.9% | >6.4 | 79.3% | 
18 | > 100 µM | 32 µM |  | Cc1cc(C(=O)O)c(C)cc1SSc1cc(C)c(C(=O)O)cc1C | Weak activity | 15.7% | 3.6 | 76.1% | 
19 | > 100 µM | 7.5 µM |  | COc1cc(SSc2cc(OC)cc([N+](=O)[O-])c2N)c(N)c([N+](=O)[O-])c1 | Weak activity | 0% | 8.5 | 80.5% | 
20 | > 100 µM | 71 µM |  | O=C(O)c1cccc(SS(=O)(=O)c2cccc(C(=O)O)c2)c1 | Weak activity | 21.1% | 13.7 | 91.2% | 
21 | > 100 µM | > 100 µM |  | CC(=O)NC1CN=C(SSC2=NCC(NC(C)=O)S2)S1 (stereo not given) | Weak activity | 8% | >5.3 | 77.8% | 
22 | > 100 µM | 37.2 µM |  | O=S(=O)(SC1=NCCN1)c1ccccc1 | Weak activity | 15.7% | 4.3 | 76.1% | 
23 | 100 µM | > 100 µM |  | Nc1cc(S(N)(=O)=O)ccc1SSc1ccc(S(N)(=O)=O)cc1N | Weak activity | 24.4% | 14.9 | 81.8% | 
24 | 96 µM | 21 µM |  | NNC(=O)c1ccccc1SSc1ccccc1C(=O)NN | Weak activity | 28.5% | 5 | 80.9% | 

Source: ChEMBL document CHEMBL1129635, “Evaluation of selected chemotypes in coupled cellular and molecular target-based screens identifies novel HIV-1 zinc finger inhibitors” (J Med Chem, 1996)
